A short description of this series: Human HepG2 cell viability assay in 384 well format. The format is toxicity, cell-based. The arrangement: dose 125 nL, time 70.5 hour; concentration not given beside the values. The following applies: HepG2 cells, read-out: Inhibition.

Take `Cc1cccnc1CCNC(=O)CC1C(=O)NCCN1CCC(C)C` (centres undefined): the cytotoxicity at 70.5 h was 19.9%. In the case of `O=C1C[C@H]2CC[C@@H](CN1)N2C1CSCCSC1`, the cytotoxicity at 70.5 h was 17.4%. Take `COc1ccccc1OC1CN(Cc2ccc(C(=O)O)cc2)C1`: the cytotoxicity at 70.5 h was -8.2%. The same measure for `Cc1ncc(CC(=O)N2CCC3(CCC(=O)N(CCO)C3)CC2)c(=O)[nH]1`: -13.5%.

Regarding `CCCn1ncc(-c2ccnc(NC3CCSC3)n2)c1C` (centres undefined), the cytotoxicity at 70.5 h was -12.7%. Next, `COCCN(CCOC)C(=O)c1c[nH]nc1-c1cccc(F)c1`: 0.751%; `Cc1nccc(NCc2cc3n(n2)CCCN(C(=O)C2CCC2)C3)n1`: 13.7%. Next, `CCCOc1cccc(-c2nc3c([nH]2)CCNC3)c1`: 5.31%. The same measure for `CSc1nnc(CC2CCN(C(=O)CCc3cccnc3)CC2)n1C`: -8.7%.

Regarding `CNC(=O)c1cc2c(s1)CCN(C(=O)CCC1CCCN(C)C1)C2` (centres undefined), the cytotoxicity at 70.5 h was -7.22%.

For the compound `O=C(CN1CCOCC1)N1CCC(c2cc(N3CCCC3)ncn2)CC1`, the cytotoxicity at 70.5 h is -3.77%.

Turning to `COc1ccc(-n2cc(CCO)cn2)cc1C`, the cytotoxicity at 70.5 h is -9.33%. The same measure for `Cc1nc(C(C)C)sc1C(=O)N(C)Cc1nc(-c2ccccn2)no1`: -9.57%; for `CCc1nc(N2CCC3(CC2)OCCCC3O)ncc1C` (centres undefined): -2.39%; for `COc1cc2c(cc1-c1nc3c(cnn3C(C)C3CC3)[nH]1)OCO2` (centres undefined): -2.31%. The same measure for `O=S(=O)(NCc1cc2n(n1)CCNC2)c1ccc(OC(F)(F)F)cc1`: -16.5%; for `CCn1nc(CC(C)C)cc1C(=O)N1CC(c2ccncc2)C1`: -4.86%. Next, `Cc1ccccc1OCC1CCCN(C(=O)Cc2c[nH]c(=O)[nH]c2=O)C1` (centres undefined): -0.878%. With `O=C(NCCOCCO)c1cnc(-c2ccccc2)nc1O`, the cytotoxicity at 70.5 h is -7.84%.

As to `Cc1c(CN2CCCC(C(=O)CCc3ccccc3)C2)cc(C#N)n1C` (centres undefined), the cytotoxicity at 70.5 h is 12%.

With `CCCc1nccn1-c1cccc(CN2CCCC2)c1`, the cytotoxicity at 70.5 h is -2.36%. As for `COCc1nnc(C(=O)N(C)Cc2cnc3ccccn23)o1`, the cytotoxicity at 70.5 h is -3.55%. With `Cc1cc(NC(C)c2nnn[nH]2)n2nc(C)c(C)c2n1` (centres undefined), the cytotoxicity at 70.5 h worked out at 5.16%. The same measure for `C=Cc1ccc(C(=O)N2CCCC(Nc3ccccc3)C2)cc1` (centres undefined): 26.6%. Next, `Cc1[nH]c(-c2ccccc2)nc1C(=O)N1CC[C@H](CO)[C@@H](O)C1`: 23.4%; `Cc1ccccc1CC1(CO)CCCN(c2ncncc2C(C)C)C1` (centres undefined): 5.34%. For `Cc1cc(C2CCCCN2C(=O)CN2C(=O)OC(C)(C)C2=O)no1` (centres undefined), the cytotoxicity at 70.5 h was -7.73%. The same measure for `FC(F)(F)c1ccc(-c2cc(NC3CCNCC3)nc3[nH]ccc23)nc1`: -7.67%.

In the case of `CCn1ccnc1C1CCN(C(=O)C(O)c2ccc(Cl)cc2)CC1` (centres undefined), the cytotoxicity at 70.5 h is -2.92%. The same measure for `CCCC(=O)Nc1ccc(CC(=O)N(C)CCc2cn[nH]c2)cc1`: -7.4%; for `CN1CCN(CCn2cnc3c(F)cccc3c2=O)CC1`: -1.43%. Take `FC(F)(F)c1cccc(OC2CCN(Cc3c[nH]cn3)CC2)c1`: the cytotoxicity at 70.5 h came out at 45.6%. Consider `CCCC1C=CCN1C(=O)c1cc(COc2ccccc2)[nH]n1` (centres undefined), for which the cytotoxicity at 70.5 h was -6.23%.

`O=C(Cc1ccccn1)N1CCCC(c2nccn2CC2CCC2)C1` (centres undefined): the cytotoxicity at 70.5 h is -24.3%.

`Cc1nc2c(c(=O)[nH]1)CCN(C(=O)c1[nH]nc3c1CC(C)CC3)C2` (centres undefined): the cytotoxicity at 70.5 h turned out to be 2.4%. On to `CCN(Cc1nccn1C)C(=O)c1ccc(NCc2ccc(C)o2)nc1`, for which the cytotoxicity at 70.5 h was found to be 27.2%. The same measure for `CCN(Cc1cn(CC2CCNCC2)nn1)CC1CCCO1` (centres undefined): -6.79%; for `CCc1cc(N(C)Cc2ccncn2)n2nccc2n1`: 13.1%.

As to `CC(NC(=O)c1cc2n(n1)CCCN(C)C2)c1cn2ccsc2n1` (centres undefined), the cytotoxicity at 70.5 h stood at 24.9%. Next, `COC[C@@]12CC[C@@H](N3CCOCC3)C[C@H]1CCN(c1ccc(Cl)cn1)C2`: -6.42%.

With `O=C(c1cnccn1)N1CCCC(Cn2cc(C3CC3)nn2)C1` (centres undefined), the cytotoxicity at 70.5 h was determined as 15.7%. In the case of `O=C(Cc1cn2ccsc2n1)N1CCOCC(O)(CN2CCCC2)C1` (centres undefined), the cytotoxicity at 70.5 h is -4.72%. The same measure for `CC(C)c1nccn1CC(=O)Nc1ccnn1C(C)C(C)C` (centres undefined): -16%; for `Cc1nc(C)c(CCN2CCC(Oc3ccccc3F)CC2)s1`: 8.23%. Next, `CCNc1ccnc(N2Cc3cnc(CC(C)C)nc3C2)n1`: 18.4%; `COCCc1noc(-c2ccc(-c3cc[nH]n3)nc2)n1`: -1.45%. Next, `Cc1csc2c(=O)n(CCN3CCNCC3)cnc12`: 11.9%; `CCc1cnc(C)nc1NC1CC(=O)N(CC)C1` (centres undefined): -7.16%. With `O=C(NCC1CCCN(Cc2cccc3nonc23)C1)c1ccc[nH]1` (centres undefined), the cytotoxicity at 70.5 h was determined as 3.08%. The same measure for `CCC1CN(C(=O)c2ccc(O)cn2)CCC(=O)N1Cc1ccccc1` (centres undefined): -3.56%; for `CN(Cc1ccc(CCC(C)(C)O)cc1)CC1(CO)CC1`: -10.9%; for `Cc1cccc(CNC2CC(=O)N(Cc3cccc(F)c3)C2)c1` (centres undefined): -4.77%.

Take `c1ccc(-c2cc(NCCCC3CCOC3)n3nccc3n2)cc1` (centres undefined): the cytotoxicity at 70.5 h was -0.688%. Next, `Cn1c(C(N)=O)cc2c1CN(C(=O)C1CC(=O)N(C(C)(C)C)C1)CC2` (centres undefined): -2.03%. For `CNc1nc(C)c(-c2nc(-c3c(C)ncc4c3CCNC4)no2)s1`, the cytotoxicity at 70.5 h was -16.8%. Next, `CCOc1cccc(C2CC(=O)NCc3nc(N)sc32)c1` (centres undefined): -11.2%; `Cn1ccnc1CN1CCc2ncnc(N3CCCC(C#N)C3)c2CC1` (centres undefined): 26.4%; `Cn1nccc1NC(=O)c1cccc(CN2C[C@H]3CC[C@@H](C2)N3)c1`: -1.03%. As to `Cc1oc(C(C)C)cc1C(=O)N1C[C@H]2CC[C@@H]1CN(C(=O)N(C)C)C2`, the cytotoxicity at 70.5 h amounted to 3.52%. Next, `CCc1ccc2nc(NCCCN(CCO)CCO)cc(C)c2c1`: -3.69%; `CCn1c(N)nc2cc(C(=O)N3CCCN(C)CC3)cnc21`: 3.17%. The same measure for `Cc1cc(C)c(C#N)c(N2CCC3(CCCN(CCO)C3=O)C2)n1` (centres undefined): 12.1%. Next, `c1cncc(C[C@@H]2CC[C@H](CN3CCCOCC3)O2)c1`: -10.6%. In the case of `O=C(CSCC1CC1)N1CCCC(c2nccn2Cc2cccnc2)C1` (centres undefined), the cytotoxicity at 70.5 h was -9.29%. The same measure for `O=C1CCC2(CCCN(Cc3nnc(C4CC4)o3)C2)CN1CCO` (centres undefined): 3.23%; for `COCC(=O)N1CCCN(Cc2cc(C(C)C)no2)CC1`: 12.3%; for `CC(=O)NCCNC(=O)CCn1c(C)cc2ccccc21`: -3.8%.

As for `COC(=O)c1ccc(N2CCN(C(=O)CCCc3cn[nH]c3)CC2)cc1`, the cytotoxicity at 70.5 h was -2.65%. Next, `CCN(C(C)=O)C1CCN(c2nccc(C3CCCC3)n2)C1` (centres undefined): -30.2%; `CCc1cc(N(C)CCc2c(C)n[nH]c2C)ncn1`: 26.8%; `Cc1cc2[nH]c(CN3CCOC(c4ccc(F)cc4)C3)cc(=O)n2n1` (centres undefined): -3.51%. Next, `Cc1nc2c(c(=O)n1C)CCN(C(=O)CCc1ccccc1O)CC2`: -6.87%; `CN(Cc1ccc2nsnc2c1)C(=O)Cn1ncc(N(C)C)cc1=O`: -7.03%; `Cc1nn(C)c2nc(NCCN3CCCC(C(N)=O)C3)sc12` (centres undefined): -13.4%. With `Cn1ncc2c(N3CCCC(C)(O)C3)nc(C(C)(C)C)nc21` (centres undefined), the cytotoxicity at 70.5 h is -7.72%. On to `COCCn1cnnc1CN(C)c1nc(N)ncc1C`, for which the cytotoxicity at 70.5 h is -14.6%. As for `Cc1nc(NC(=O)NC2CC(=O)N(C(C)C)C2)nn1C(C)C` (centres undefined), the cytotoxicity at 70.5 h was -0.942%. The same measure for `CC(C)C1CN(Cc2nccn2C(C)C)CCC(=O)N1CC1CC1` (centres undefined): 0.0298%.

Regarding `CC(C)N1C[C@H](NC(=O)c2coc(COc3cccc(F)c3)n2)[C@@H](O)C1`, the cytotoxicity at 70.5 h was determined as 2.02%.

Take `COc1ccc(-n2c(CCC(=O)O)nc3ccccc32)cc1CO`: the cytotoxicity at 70.5 h was determined as 4.28%.

Take `O=C(CN1C(=O)CCNC1=O)N1CCC2(CCc3ccccc32)CC1`: the cytotoxicity at 70.5 h worked out at 16.2%. Next, `O=c1cc(N2CCCC2)cnn1CCc1cccc(F)c1`: 34.6%.

For `COCc1noc(CCNC(=O)c2ccc(C3CCCO3)s2)n1` (centres undefined), the cytotoxicity at 70.5 h amounted to 8.28%. As for `CN1CCCC2(CCN(C(=O)Cn3ncc4ccccc4c3=O)C2)C1=O` (centres undefined), the cytotoxicity at 70.5 h turned out to be 9.09%.

Turning to `CCc1ncc(C(=O)N(CC)CCOC)cn1`, the cytotoxicity at 70.5 h is -1.19%.

As to `COc1nc2ccn(CCc3scnc3C)c(=O)c2cc1C#N`, the cytotoxicity at 70.5 h was -4.15%. `OCC1(Cc2cccc(Cl)c2)CCCN(c2ncccn2)C1` (centres undefined): the cytotoxicity at 70.5 h turned out to be 28.5%. Next, `CC1(Cc2ccccn2)NCCc2[nH]cnc21` (centres undefined): -1.72%; `O=C(O)CC[C@@H]1CN(c2ncccc2F)CC[C@@H]1N1CCOCC1`: -8.92%; `COCCC(=O)N(C)CCC1=CCN(C)CC1`: 33%. In the case of `O=C(NCc1ccc2[nH]c(=O)[nH]c2c1)c1ccc(CN2CCCC2)o1`, the cytotoxicity at 70.5 h is -9.98%. The same measure for `Cc1cc(CN(C)C(=O)C(c2ccccc2F)N(C)C)ccn1` (centres undefined): -7.87%. `CC(C)n1ccnc1C1CCN(c2nccc(C(F)(F)F)n2)CC1`: the cytotoxicity at 70.5 h came out at 5.98%. Next, `COc1ccc(Cc2noc(-c3ccc(NC(C)CO)nc3)n2)cc1` (centres undefined): 3.07%; `CC(C)(O)c1cn(C2CCN(C(=O)CCC(F)(F)F)CC2)nn1`: -2.56%. The same measure for `CCC(C)N(Cc1cnc(NC(C)C)nc1)Cc1ccsc1` (centres undefined): -4.23%. Next, `Cc1nc(CN2CCC(C(=O)O)(n3ccc(C(C)C)n3)CC2)co1`: -0.222%; `Cc1cc(C)c2c(c1)NC(=O)C2CC(=O)O` (centres undefined): -4.36%. For `CCOCCNC(=O)C1CCC(=O)N(CCc2ccc(Cl)cc2)C1` (centres undefined), the cytotoxicity at 70.5 h was -3.36%.

The record behind these values is ChEMBL document CHEMBL3507680, “University of Dundee, Gates Library screen for HepG2 cell viability”.
